Each block holds one compound with its values, some of them ahead of it.
How the values were obtained:
Format in all cases: in vivo, Sprague-Dawley rats
[1] = Plasma concentration of melagatran (LC-MS)
Description: (§1) Sham operated animals received saline instead of endotoxin.

rats given endotoxin = assay: 125I-fibrinogen in the blood after endotoxin (experimental endotoxaemia); details: high dose heparin (group VIII); melagatran groups IV-VI; melagatran with dexamethasone groups XVII-XX
Method: (§2) The body temperature was maintained at. 38° C. throughout the experiment by external heating.
as §1
Adjustment for multiplicity was done using Scheffe. […] Corrections for multiple comparisons were made according to Bonferroni.

[2] = system: thrombin/antithrombin III complex (TAT); assay: Thrombin/antithrombin III complex (TAT) in plasma after endotoxin
Method: as §2
[…]. […] Sham operated animals received saline instead of endotoxin.

- mean plasma concentration of melagatran during the 5 h experiment ([1]; group IV, Mela low 0.13 μmol/kg bolus + 0.32 μmol/kg/h iv): 0.78 ± 0.08 µmol/L
- plasma concentration of melagatran combined with heparin ([1]; group IX, Hep low + Mela low): 720 ± 90 nM
- mean plasma concentration of melagatran during the 5 h experiment ([1]; group V, Mela med 0.4 μmol/kg bolus + 1.0 μmol/kg/h iv): 2.83+0.45 μmol/l
- mean plasma concentration of melagatran during the 5 h experiment ([1]; group VI, Mela high 1.3 μmol/kg bolus + 3.2 μmol/kg/h iv): 6.88 ± 0.42 µmol/L
- plasma concentration of melagatran combined with heparin ([1]; group X, Hep low + Mela med): 1970 ± 160 nM
- plasma concentration of melagatran in combination with dexamethasone ([1]; high dose group, first value (group XVIII, Dexa low 1 mg/kg + melagatran 0.4 μmol/kg + 1.0 μmol/kg/h)): 1490 ± 130 nM
- plasma concentration of melagatran in combination with dexamethasone ([1]; high dose group, second value (group XX, Dexa high 10 mg/kg + melagatran 0.4 μmol/kg + 1.0 μmol/kg/h)): 1280 ± 100 nM
- plasma concentration of melagatran in combination with dexamethasone ([1]; low dose group, first value (group XVII, Dexa low 1 mg/kg + melagatran 0.13 μmol/kg + 0.32 μmol/kg/h)): 480 ± 10 nM
- plasma concentration of melagatran in combination with dexamethasone ([1]; low dose group, second value (group XIX, Dexa high 10 mg/kg + melagatran 0.13 μmol/kg + 0.32 μmol/kg/h)): 460 ± 20 nM
Structure (SMILES): N=C(N)c1ccc(CNC(=O)[C@@H]2CCN2C(=O)[C@H](NCC(=O)O)C2CCCCC2)cc1 [melagatran, HOOC—CH2—(R)Cgl-Aze-Pab-H]
- fibrinogen consumption (rats given endotoxin): completely prevented

Structure (SMILES): NC[C@H]1CC[C@H](C(=O)O)CC1 [tranexamic acid]
- TAT ([2]; measured in some animals, group III, groups XV-XX): 55.5 ± 6.6 µg/L

Structure (SMILES): C[C@@H]1C[C@H]2[C@@H]3CCC4=CC(=O)C=C[C@]4(C)[C@@]3(F)[C@@H](O)C[C@]2(C)[C@@]1(O)C(=O)CO [dexamethasone, Dexamethasone]
- TAT (thrombin generation) ([2]; dexamethasone groups (discussion)): below 8 μg/l

— patent US7449446B2, “Combination product comprising melagatran and dexamethasone” (AstraZeneca AB, priority 2001, dated 2008)
